{"source": "patent US20250078975A1", "about": "“METHODS OF PREDICTING PATIENT TREATMENT RESPONSE AND RESISTANCE VIA SINGLE-CELL TRANSCRIPTOMICS OF THEIR TUMORS” (The USA, as represented by the Secretary, Department of …, priority 2023, published 2025)", "origin": "cited, not measured here", "tested_on": "cancer cell lines", "settings": "through downregulation of Akt (Bartholomeusz et al. 2011)"}
{"molecule": "Nc1ccn([C@@H]2O[C@H](CO)[C@@H](O)C2(F)F)c(=O)n1", "note": "[gemcitabine]", "values": [{"measurement": "Effect on erlotinib resistance", "value": "can overcome erlotinib resistance"}]}
